Target: T1, Recombinant human cathepsin A (Homo sapiens, UniProt P10619)
T1 construct: Recombinant human cathepsin A (residues 29-480, with a C-terminal 10-His tag); 10-His (C); purchased R&D Systems 1049-SE
T1 sequence (P10619 29-326 limits assumed): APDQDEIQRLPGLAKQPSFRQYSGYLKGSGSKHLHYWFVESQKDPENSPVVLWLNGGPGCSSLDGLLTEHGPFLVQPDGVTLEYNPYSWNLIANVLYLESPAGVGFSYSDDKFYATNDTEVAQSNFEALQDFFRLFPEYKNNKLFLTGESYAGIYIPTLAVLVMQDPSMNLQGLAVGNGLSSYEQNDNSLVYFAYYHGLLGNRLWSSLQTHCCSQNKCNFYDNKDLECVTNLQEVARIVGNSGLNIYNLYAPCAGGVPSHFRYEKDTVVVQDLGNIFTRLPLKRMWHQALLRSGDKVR
T1 sequence (P10619 327-480 limits assumed): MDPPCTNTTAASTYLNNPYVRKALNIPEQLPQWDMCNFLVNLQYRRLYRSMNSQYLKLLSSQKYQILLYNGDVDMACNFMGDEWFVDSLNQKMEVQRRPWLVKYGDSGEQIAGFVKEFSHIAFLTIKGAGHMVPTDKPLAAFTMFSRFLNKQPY
Assay: Cathepsin A inhibitory activity
Type: biochemical
Details: activated recombinant human cathepsin A, Bodipy FL-labeled bradykinin substrate, pH 5.5, microfluidic capillary electrophoresis
Procedure: Recombinant human cathepsin A (residues 29-480, with a C-terminal 10-His tag; R&D Systems, # 1049-SE) was proteolytically activated with recombinant human cathepsin L (R&D Systems, # 952-CY). Briefly, cathepsin A was incubated at 10 μg/ml with cathepsin L at 1 μg/ml in activation buffer (25 mM 2-(morpholin-4-yl)-ethanesulfonic acid (MES), pH 6.0, containing 5 mM dithiothreitol (DTT)) for 15 min at 37° C. Cathepsin L activity was then stopped by the addition of the cysteine protease inhibitor E-64 (N-(trans-epoxysuccinyl)-L-leucine-4-guanidinobutylamide; Sigma-Aldrich, # E3132; dissolved in activation buffer/DMSO) to a final concentration of 10 μM.
The activated cathepsin A was diluted in assay buffer (25 mM MES, pH 5.5, containing 5 mM DTT) and mixed with the test compound (dissolved in assay buffer containing (v/v) 3% DMSO) or, in the control experiments, with the vehicle in a multiple assay plate. […]
Uncleaved substrate and product were then separated by a microfluidic capillary electrophoresis on a LabChip® 3000 Drug Discovery System (12-Sipper-Chip; Caliper Life Sciences) and quantified by determination of the respective peak areas. Substrate turnover was calculated by dividing product peak area by the sum of substrate and product peak areas, and the enzyme activity and the inhibitory effect of the test compound thus quantified. […]

IC50: 100 nM
Compound: CCC[C@H](NC(=O)[C@@H]1[C@H]2CCC[C@H]2CN1C(=O)[C@@H](NC(=O)[C@@H](NC(=O)c1cnccn1)C1CCCCC1)C(C)(C)C)C(=O)C(=O)NC1CC1 [Telaprevir, (1 S,3aR,6aS)-2-[(2S)-2-[[(2S)-2-Cyclohexyl-2-(pyrazine-2-carbonylamino)acetyl]amino]-3,3-dimethylbutanoyl]-N-[(3S)-1-(cyclopropylamino)-1,2-dioxohexan-3-yl]-3,3a,4,5,6,6a-hexahydro-1H-cyclopenta[c]pyrrole-1-carboxamide]

— US20130123276A1, “USE OF TELAPREVIR AND RELATED COMPOUNDS IN ATHEROSCLEROSIS, HEART FAILURE, RENAL DISEASES, LIVER DISEASES OR INFLAMMATORY DISEASES” (priority 2011, published 2013)
